# Test results: patent publication US7732618B2, “Benzimidazole acetic acids exhibiting CRTH2 receptor antagonism and uses thereof” (Wyeth, priority 2004, dated 2010)
# Biological target: T1, human CRTH2 (Homo sapiens, UniProt Q9Y5Y4)
# T1 sequence (Q9Y5Y4 1-395): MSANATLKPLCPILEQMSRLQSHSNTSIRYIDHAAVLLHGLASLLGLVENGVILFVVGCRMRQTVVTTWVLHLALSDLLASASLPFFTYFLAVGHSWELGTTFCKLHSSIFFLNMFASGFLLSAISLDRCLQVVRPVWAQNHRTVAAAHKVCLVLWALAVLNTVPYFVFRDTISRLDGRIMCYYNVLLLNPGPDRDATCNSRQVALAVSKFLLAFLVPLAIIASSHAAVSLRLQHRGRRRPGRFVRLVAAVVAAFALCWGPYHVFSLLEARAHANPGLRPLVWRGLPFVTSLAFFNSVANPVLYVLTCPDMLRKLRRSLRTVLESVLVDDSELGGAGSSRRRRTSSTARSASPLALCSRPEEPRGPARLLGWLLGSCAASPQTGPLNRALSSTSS
# Assay: CRTH-2 binding assay (scintillation proximity assay, inhibition of 3H-PGD2 binding)
# Design: expressed in transfected cells; host or cells: 293EBNA-hCRTH2 cells (membrane preparation)
# Conditions: membranes from 293EBNA-hCRTH2 cells, 3H-PGD2 3.6 nM; Ki calculated from IC50
# Method: A CRTH2 binding assay was developed to measure the ability of compounds to inhibit the binding of PGD2 to human CRTH2 using a scintillation proximity assay.
# Membranes containing hCRTH2 receptors were prepared from 293EBNA-hCRTH2 cells (a 293EBNA cell line stably expressing human CRTH2). The cells were grown to confluency, harvested and washed with PBS. The cells were resuspended in 10 mM Hepes pH 7.4, 1 mM EDTA and protease inhibitors and incubated for 30 min on ice. The cells were homogenized and centrifuged for 10 min at 1000×g. The supernate was centrifuged for 30 min at 100,000×g and the membrane pellet was then resuspended in 10 mM Hepes pH 7.4 and 1 mM EDTA. The protein concentration of the membrane preparation was determined by Bradford assay (Bio-Rad).
# The ability of compounds to inhibit the interaction of PGD2 to human CRTH2 was determined at seven compound concentrations. Compounds were serially diluted in DMSO then diluted into CRTH2 buffer (10 mM Hepes pH 7.4, 1 mM EDTA, 10 mM MnCl2) to six times the final desired concentration. 20 μL of the diluted compounds were transferred into non-surface binding 96-well plates (Corning). Each concentration was done in triplicate. In addition to test compounds, each plate contained 12 control wells. Six of these wells contained 20 μL of CRTH2 buffer. These wells were used to measure total binding. Six wells contained 20 μL of CRTH2 buffer plus 1.5 mM indomethacin. These wells were used to measure non-specific binding. Next, 293EBNA-hCRTH2 membranes were resuspended in CRTH2 buffer with glycerol (10 mM Hepes pH 7.4, 1 mM EDTA, 10 mM MnCl2, 25% glycerol) so that the final concentration was approximately 20 μg/100 μL. Polylysine-coated yttrium silicate SPA beads (Amersham) were added to the membrane mix to a concentration of 0.4 mg/100 μL and finally ^3H-PGD2 was added to the membrane/SPA bead mix to 3.6 nM. 100 μL of the membrane/SPA bead/^3H-PGD2 mix was added to each well of the non-surface binding plates containing the diluted compound or controls. The plates were incubated for 2 hours at room temperature with shaking and then the plates were counted on a Microbeta scintillation counter (Perkin Elmer) for 1 min per well.
# IC50 values were determined from the experimental results by nonlinear regression using Prism 4.0 software. The IC50 values were then used in conjunction with the Kd for hCRTH2 and the ^3H-PGD2 concentration used in the experiment to calculate the Ki for each compound.
row,Compound,Ki
1,"CCc1nc2cc(NS(=O)(=O)c3ccc(F)cc3)ccc2n1CC(=O)O [Example 3, [2-Ethyl-5-(4-fluoro-benzenesulfonylamino)-benzoimidazol-1-yl]-acetic acid]",< 1000 nM
2,"CCCc1nc2cc(N(Cc3ccc(F)cc3)S(=O)(=O)c3cccc(F)c3)ccc2n1CC(=O)O [Example 27, {5-[(3-Fluoro-benzenesulfonyl)-(4-fluoro-benzyl)-amino]-2-propyl-benzoimidazol-1-yl}-acetic acid]",< 1000 nM
3,"CCCc1nc2cccc(N(Cc3ccccc3)S(=O)(=O)c3ccc(F)cc3)c2n1CC(=O)O [Example 40, {7-[Benzyl-(4-fluoro-benzenesulfonyl)-amino]-2-propyl-benzoimidazol-1-yl}-acetic acid]",> 10000 nM
4,"CC(C)Cc1nc2cc(NS(=O)(=O)c3ccc(F)cc3)ccc2n1CC(=O)O [Example 7, [5-(4-Fluoro-benzenesulfonylamino)-2-isobutyl-benzoimidazol-1-yl]-acetic acid]",< 10000 nM
5,"CCCc1nc2cc(N(Cc3ccc(F)cc3)C(=O)COC)ccc2n1CC(=O)O [Example 30, {5-[(4-Fluoro-benzyl)-(2-methoxy-acetyl)-amino]-2-propyl-benzoimidazol-1-yl}-acetic acid]",< 1000 nM
6,"CC(C)c1nc2cc(NS(=O)(=O)c3ccc(F)cc3)ccc2n1CC(=O)O [Example 13, [5-(4-Fluoro-benzenesulfonylamino)-2-isopropyl-benzoimidazol-1-yl]-acetic acid]",< 1000 nM
7,"CCCc1nc2cc(N(Cc3cccc(F)c3)S(=O)(=O)c3ccc(F)cc3)ccc2n1CC(=O)O [Example 50, {5-[(4-Fluoro-benzenesulfonyl)-(3-fluoro-benzyl)-amino]-2-propyl-benzoimidazol-1-yl}-acetic acid]",< 1000 nM
8,"CC(C)=CCCC(C)c1nc2cc(NS(=O)(=O)c3ccc(F)cc3)ccc2n1CC(=O)O (centres unmarked) [Example 4, [2-(1,5-Dimethyl-hex-4-enyl)-5-(4-fluoro-benzenesulfonylamino)-benzoimidazol-1-yl]-acetic acid]",< 10000 nM
9,"CCCc1nc2cc(N(Cc3ccccc3C(F)(F)F)S(=O)(=O)c3ccc(F)cc3)ccc2n1CC(=O)O [Example 45, {5-[(2-Trifluoromethyl-benzyl)-(4-fluoro-benzenesulfonyl)-amino]-2-propyl-benzoimidazol-1-yl}-acetic acid]",< 1000 nM
10,"CCCc1nc2cc(N(Cc3ccccc3)C(=O)c3ccc(F)c(F)c3)ccc2n1CC(=O)O [Example 67, {5-[Benzyl-(3,4-difluoro-benzoyl)-amino]-2-propyl-benzoimidazol-1-yl}-acetic acid]",< 1000 nM
11,"CCCc1nc2cc(N(Cc3ccccc3)C(=O)c3ccccc3F)ccc2n1CC(=O)O [Example 64, {5-[Benzyl-(2-fluoro-benzoyl)-amino]-2-propyl-benzoimidazol-1-yl}-acetic acid]",> 10000 nM
12,"CC(Cc1nc2cc(NS(=O)(=O)c3ccc(F)cc3)ccc2n1CC(=O)O)CC(C)(C)C (centres unmarked) [Example 8, [5-(4-Fluoro-benzenesulfonylamino)-2-(2,4,4-trimethyl-pentyl)-benzoimidazol-1-yl]-acetic acid]",> 10000 nM
13,"CCCc1nc2c(N(C(C)C)S(=O)(=O)c3cccc(F)c3)cccc2n1CC(=O)O [Example 38, {4-[(3-Fluoro-benzenesulfonyl)-isopropyl-amino]-2-propyl-benzoimidazol-1-yl}-acetic acid]",< 10000 nM
14,"CCCc1nc2cc(N(Cc3ccc(F)cc3)C(=O)c3ccccc3)ccc2n1CC(=O)O [Example 32, {5-[Benzoyl-(4-fluoro-benzyl)-amino]-2-propyl-benzoimidazol-1-yl}-acetic acid]",< 1000 nM
15,"CCCc1nc2cc(N3C(=O)c4ccccc4S3(=O)=O)ccc2n1CC(=O)O [Example 26, [2-Propyl-5-(1,1,3-trioxo-1,3-dihydro-1λ^6-benzo[d]isothiazol-2-yl)-benzoimidazol-1-yl]-acetic acid]",< 10000 nM
16,"CCCc1nc2c(N(Cc3ccccc3)S(=O)(=O)Cc3ccc(F)cc3)cccc2n1CC(=O)O [Example 39, {4-[Benzyl-(4-fluoro-phenylmethanesulfonyl)-amino]-2-propyl-benzoimidazol-1-yl}-acetic acid]",< 1000 nM
17,"CCCCc1nc2cc(N(C)S(=O)(=O)c3ccc(F)cc3)ccc2n1CC(=O)O [Example 17, {2-Butyl-5-[(4-fluoro-benzenesulfonyl)-methyl-amino]-benzoimidazol-1-yl}-acetic acid]",< 1000 nM

# Further lines, results first:
row,Ki,Compound
1,< 100 nM,"CCCc1nc2cc(N(Cc3ccccc3Cl)S(=O)(=O)c3ccc(F)cc3)ccc2n1CC(=O)O [Example 41, {5-[(2-Chloro-benzyl)-(4-fluoro-benzenesulfonyl)-amino]-2-propyl-benzoimidazol-1-yl}-acetic acid]"
2,< 1000 nM,"CCCc1nc2cc(N(Cc3ccc(F)cc3)S(=O)(=O)CC)ccc2n1CC(=O)O [Example 29, {5-[Ethanesulfonyl-(4-fluoro-benzyl)-amino]-2-propyl-benzoimidazol-1-yl}-acetic acid]"
3,< 1000 nM,"CCCc1nc2cc(N(Cc3csc(C)n3)S(=O)(=O)c3ccc(F)cc3)ccc2n1CC(=O)O [Example 22, {5-[(4-Fluoro-benzenesulfonyl)-(2-methyl-thiazol-4-ylmethyl)-amino]-2-propyl-benzoimidazol-1-yl}-acetic acid]"
4,< 100 nM,"CCCc1nc2cc(N(Cc3ccccc3)S(=O)(=O)c3ccc(F)cc3)ccc2n1CC(=O)O [Example 14, {5-[Benzyl-(4-fluoro-benzenesulfonyl)-amino]-2-propyl-benzoimidazol-1-yl}-acetic acid]"
5,< 1000 nM,"CCCc1nc2cc(N(CC(=O)OCC)S(=O)(=O)c3ccc(F)cc3)ccc2n1CC(=O)O [Example 18, {5-[Ethoxycarbonylmethyl-(4-fluoro-benzenesulfonyl)-amino]-2-propyl-benzoimidazol-1-yl}-acetic acid]"
6,< 100 nM,"CCCc1nc2cc(N(Cc3ccc(F)cc3)C(C)=O)ccc2n1CC(=O)O [Example 33, {5-[Acetyl-(4-fluoro-benzyl)-amino]-2-propyl-benzoimidazol-1-yl}-acetic acid]"
7,< 100 nM,"CCCc1nc2cc(N(Cc3nc4ccccc4s3)S(=O)(=O)c3ccc(F)cc3)ccc2n1CC(=O)O [Example 55, {5-[Benzothiazol-2-ylmethyl-(4-fluoro-benzenesulfonyl)-amino]-2-propyl-benzoimidazol-1-yl}-acetic acid]"
8,< 100 nM,"C/C=C/CN(c1ccc2c(c1)nc(CCC)n2CC(=O)O)S(=O)(=O)c1ccc(F)cc1 [Example 56, {5-[But-2-enyl-(4-fluoro-benzenesulfonyl)-amino]-2-propyl-benzoimidazol-1-yl}-acetic acid]"
9,< 100 nM,"CCCc1nc2cc(N(CCCc3ccccc3)S(=O)(=O)c3ccc(F)cc3)ccc2n1CC(=O)O [Example 48, {5-[(4-Fluoro-benzenesulfonyl)-(3-phenyl-propyl)-amino]-2-propyl-benzoimidazol-1-yl}-acetic acid]"
10,< 100 nM,"CCCc1nc2cc(N(Cc3cccc(Cl)c3Cl)S(=O)(=O)c3ccc(F)cc3)ccc2n1CC(=O)O [Example 44, {5-[(2,3-Dichloro-benzyl)-(4-fluoro-benzenesulfonyl)-amino]-2-propyl-benzoimidazol-1-yl}-acetic acid]"
11,< 100 nM,"CCCc1nc2cc(N(Cc3ccc(F)cc3)S(=O)(=O)c3ccc(F)cc3)ccc2n1CC(=O)O [Example 19, {5-[(4-Fluoro-benzenesulfonyl)-(4-fluoro-benzyl)-amino]-2-propyl-benzoimidazol-1-yl}-acetic acid]"
12,< 100 nM,"CCCc1nc2cc(N(Cc3ccc(C#N)cc3)S(=O)(=O)c3ccc(F)cc3)ccc2n1CC(=O)O [Example 52, {5-[(4-Cyano-benzyl)-(4-fluoro-benzenesulfonyl)-amino]-2-propyl-benzoimidazol-1-yl}-acetic acid]"
